Structures are written as SMILES.

Sequence of human activated kallikrein enzyme (P03952 391-638 limits assumed): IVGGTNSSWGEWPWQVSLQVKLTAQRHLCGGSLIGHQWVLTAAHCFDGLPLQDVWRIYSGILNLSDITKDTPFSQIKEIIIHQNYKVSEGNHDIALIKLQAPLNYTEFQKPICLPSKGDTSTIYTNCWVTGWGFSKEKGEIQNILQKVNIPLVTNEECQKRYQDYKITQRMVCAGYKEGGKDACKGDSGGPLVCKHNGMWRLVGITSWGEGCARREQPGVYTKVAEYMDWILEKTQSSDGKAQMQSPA
Sequence of human activated kallikrein enzyme (P03952 20-390 partner limits assumed): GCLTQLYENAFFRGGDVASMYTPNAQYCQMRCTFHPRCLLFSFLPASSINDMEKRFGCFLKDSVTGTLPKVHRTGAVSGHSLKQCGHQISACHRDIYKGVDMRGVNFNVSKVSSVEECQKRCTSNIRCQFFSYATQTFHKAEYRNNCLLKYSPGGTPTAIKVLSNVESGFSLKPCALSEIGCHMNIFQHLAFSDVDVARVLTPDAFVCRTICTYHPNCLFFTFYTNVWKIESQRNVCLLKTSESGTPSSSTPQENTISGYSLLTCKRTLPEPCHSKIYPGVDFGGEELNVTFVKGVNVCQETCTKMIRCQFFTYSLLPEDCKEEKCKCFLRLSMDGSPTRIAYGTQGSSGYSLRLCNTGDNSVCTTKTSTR

For the first assay, the target named is human activated kallikrein enzyme (Homo sapiens, UniProt P03952). The assay is described as follows: Plasma kallikrein inhibition, fluorogenic PFR-AMC substrate, 500 pM activated kallikrein format. Conditions: 500 pM activated kallikrein, 300 uM PFR-AMC, 30 min preincubation, 10 min reaction; read-out: Primary Dose Response Assay: Average EC50. The assay is classed as biochemical. In short, it runs like this:
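Fluorescence (ex 380/em 460 nm) is read after 10 min of 300 uM PFR-AMC turnover by 500 pM enzyme at RT. Compounds sit with enzyme for 30 min beforehand. Buffer is Tris (pH 7.5) with EDTA, NaCl, PEG-400 and Triton X-100; EC50 values are banded.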
A word on the EC50: it is the concentration that produces a half-maximal response. Regarding `O=C(O)COc1ccc(Cl)cc1[C@H]1C[C@@H]1C(=O)Nc1cc(NCc2cn3cc(C4CC4)ccc3n2)ncn1` (racemic) [Example 315, rac-3-(4-chloro-2-((1S*,2S*)-2-((6-(((6-cyclopropylimidazo[1,2-a]pyridin-2-yl)methyl)amino)pyrimidin-4-yl)carbamoyl)cyclopropyl)phenoxy)acetic acid], the EC50 was in the range of 100 to 1000 nM.
On the same count and under the same terms, then `O=C1CN(c2cc(C3CC3)cn3cc(CNc4cc(NC(=O)[C@H]5C[C@@H]5c5cccc(Cl)c5)ncn4)nc23)CCN1` [Example I-149, (1S,2S)-2-(3-chlorophenyl)-N-(6-(((6-cyclopropyl-8-(3-oxopiperazin-1-yl)imidazo[1,2-a]pyridin-2-yl)methyl)amino)pyrimidin-4-yl)cyclopropane-1-carboxamide], with 1 to 10 nM; and `O=C(Nc1cc(NCc2cn3cc(C4CC4)ccc3n2)ncn1)[C@H]1C[C@@H]1c1cc(Cl)ccn1` (single isomer, unassigned) [Example I-266, rac-(1S*,2S*)-2-(4-chloropyridin-2-yl)-N-(6-(((6-cyclopropylimidazo[1,2-a]pyridin-2-yl)methyl)amino)pyrimidin-4-yl)cyclopropane-1-carboxamide], with 100 to 1000 nM; and `O=C(Nc1nccc2nn(Cc3cn4cc(C5CC5)ccc4n3)nc12)[C@H]1C[C@@H]1c1cccc(Cl)c1` [Example 583, (1S,2S)-2-(3-chlorophenyl)-N-(2-((6-cyclopropylimidazo[1,2-a]pyridin-2-yl)methyl)-2H-[1,2,3]triazolo[4,5-c]pyridin-4-yl)cyclopropane-1-carboxamide], with 1 to 10 nM.
With `CS(=O)(=O)c1cc(C2CC2)cn2cc(CNc3cc(NC(=O)[C@H]4C[C@@H]4c4cc(Cl)ccn4)ncn3)nc12` [Example 325, (1S,2S)-2-(4-chloropyridin-2-yl)-N-(6-(((6-cyclopropyl-8-(methylsulfonyl)imidazo[1,2-a]pyridin-2-yl)methyl)amino)pyrimidin-4-yl)cyclopropane-1-carboxamide], the half-maximal effective concentration (EC50) was < 1 nM.
For the molecule `O=C(Nc1cc(NCc2cn3cc(C4CC4)cc(N4CCCC4=O)c3n2)ccn1)[C@@H]1C[C@H]1c1cccc(Cl)c1` (relative stereo) [Example 118], the EC50 is < 1 nM.
Still for that read-out and setting: then `O=C(Nc1cc(NCc2cn3cc(C4CC4)ccc3n2)ccn1)[C@@H]1C[C@]12C(=O)Nc1ccc(Cl)cc12` (racemic) [Example 514, rac-(1R*,2S*)-5′-chloro-N-(4-(((6-cyclopropylimidazo[1,2-a]pyridin-2-yl)methyl)amino)pyridin-2-yl)-2′-oxospiro[cyclopropane-1,3′-indoline]-2-carboxamide], with 10 to 100 nM; and `O=C(Nc1nccc(NCc2cn3cc(C4CC4)ccc3n2)n1)[C@H]1C[C@@H]1c1cccc(Cl)c1` (racemic) [Example 346, (rac-(1S*,2S*))-2-(3-chlorophenyl)-N-(4-(((6-cyclopropylimidazo[1,2-a]pyridin-2-yl)methyl)amino)pyrimidin-2-yl)cyclopropane-1-carboxamide], with 1 to 10 nM; and `O=C(O)CCc1cc(C2CC2)cn2cc(CNc3cc(NC(=O)[C@H]4C[C@@H]4c4cccc(Cl)c4)ncn3)nc12` (racemic) [Example 72, rac-3-(2-(((6-((1S*,2S*)-2-(3-chlorophenyl)cyclopropane-1-carboxamido)pyrimidin-4-yl)amino)methyl)-6-cyclopropylimidazo[1,2-a]pyridin-8-yl)propanoic acid], with 1 to 10 nM.
Still for that read-out and setting: with `Cc1ccnc([C@H]2C[C@@H]2C(=O)Nc2cc(OCc3cn4cc(C5CC5)cc(N5CC(=O)N(C)C5=O)c4n3)c(CO)nn2)n1` [Example 677, (1S,2S)—N-(5-((6-cyclopropyl-8-(3-methyl-2,4-dioxoimidazolidin-1-yl)imidazo[1,2-a]pyridin-2-yl)methoxy)-6-(hydroxymethyl)pyridazin-3-yl)-2-(4-methylpyrimidin-2-yl)cyclopropane-1-carboxamide] the figure was < 1 nM; with `Cc1ccnc([C@H]2C[C@@H]2C(=O)Nc2ncnc3nn(Cc4cn5cc(C6CC6)cc(N6CC(=O)N(C)C6=O)c5n4)cc23)n1` (single isomer, unassigned) [Example I-634, rac-(1S*,2S*)—N-(2-((6-cyclopropyl-8-(3-methyl-2,4-dioxoimidazolidin-1-yl)imidazo[1,2-a]pyridin-2-yl)methyl)-2H-pyrazolo[3,4-d]pyrimidin-4-yl)-2-(4-methylpyrimidin-2-yl)cyclopropane-1-carboxamide], < 1 nM.
On the same count and under the same terms, then `Nc1ccc(Cl)cc1[C@H]1C[C@@H]1C(=O)Nc1nccc2nn(Cc3cn4cc(C5CC5)ccc4n3)cc12` (racemic) [Example 585, rac-(1S*,2S*)-2-(2-amino-5-chlorophenyl)-N-(2-((6-cyclopropylimidazo[1,2-a]pyridin-2-yl)methyl)-2H-pyrazolo[4,3-c]pyridin-4-yl)cyclopropane-1-carboxamide], with 10 to 100 nM; and `CSc1nc(NCc2cn3cc(C4CC4)ccc3n2)cc(NC(=O)[C@@H]2C[C@H]2c2cccc(Cl)c2)n1` (racemic) [Example 106, rac-(1S*,2S*)-2-(3-chlorophenyl)-N-(6-(((6-cyclopropylimidazo[1,2-a]pyridin-2-yl)methyl)amino)-2-(methylthio)pyrimidin-4-yl)cyclopropane-1-carboxamide], with 100 to 1000 nM.
For the molecule `Cc1ccnc([C@@H]2C[C@H]2C(=O)Nc2cc(NCc3cn4cc(C5CC5)cc(S(C)(=O)=O)c4n3)ncn2)n1` (single isomer, unassigned) [Example 323], the EC50 is 10 to 100 nM.
Same read-out and setting: with `C[S+]([O-])c1nc(NCc2cn3cc(C4CC4)ccc3n2)cc(NC(=O)[C@H]2C[C@@H]2c2cccc(Cl)c2)n1` (relative stereo) [Example 109, rac-(1S*,2S*)-2-(3-chlorophenyl)-N-(6-(((6-cyclopropylimidazo[1,2-a]pyridin-2-yl)methyl)amino)-2-(methylsulfinyl)pyrimidin-4-yl)cyclopropane-1-carboxamide] the figure was 1 to 10 nM; with `O=C(Nc1cc(NCc2cn3cc(C4CC4)ccc3n2)ncn1)[C@H]1C[C@@H]1c1ccc(F)c(Cl)c1` (racemic) [Example 45, rac-(1S*,2S*)-2-(3-chloro-4-fluorophenyl)-N-(6-(((6-cyclopropylimidazo[1,2-a]pyridin-2-yl)methyl)amino)pyrimidin-4-yl)cyclopropane-1-carboxamide], 100 to 1000 nM; with `O=C(Nc1cc(NCc2cn3cc(C4CC4)cc(N4CC(F)C4)c3n2)ncn1)[C@H]1C[C@@H]1c1cccc(Cl)c1` [Example I-145, (1S,2S)-2-(3-chlorophenyl)-N-(6-(((6-cyclopropyl-8-(3-fluoroazetidin-1-yl)imidazo[1,2-a]pyridin-2-yl)methyl)amino)pyrimidin-4-yl)cyclopropane-1-carboxamide], 10 to 100 nM.
On the same count and under the same terms, then `Cc1ccnc([C@H]2C[C@@H]2C(=O)Nc2cc(F)cc(OCc3cn4cc(C5CC5)cc(N5CC(=O)N(C)C5=O)c4n3)n2)n1` [Example 675, (1S,2S)—N-(6-((6-cyclopropyl-8-(3-methyl-2,4-dioxoimidazolidin-1-yl)imidazo[1,2-a]pyridin-2-yl)methoxy)-4-fluoropyridin-2-yl)-2-(4-methylpyrimidin-2-yl)cyclopropane-1-carboxamide], with < 1 nM.
Same read-out and setting: then `O=C(Nc1cc(NCc2cn3cc(C4CC4)ccc3n2)ccn1)[C@H]1C[C@@H]1c1ccc(Cl)s1` (racemic) [Example I-218, rac-(1S*,2S*)-2-(5-chlorothiophen-2-yl)-N-(4-(((6-cyclopropylimidazo[1,2-a]pyridin-2-yl)methyl)amino)pyridin-2-yl)cyclopropane-1-carboxamide], with 10 to 100 nM.
As to `Cc1ccnc([C@H]2C[C@@H]2C(=O)Nc2cccc(S(=O)(=O)Cc3cn4cc(C5CC5)cc(N5CC(=O)N(C)C5=O)c4n3)c2)n1` [Example I-646, (1S,2S)—N-(3-(((6-cyclopropyl-8-(3-methyl-2,4-dioxoimidazolidin-1-yl)imidazo[1,2-a]pyridin-2-yl)methyl)sulfonyl)phenyl)-2-(4-methylpyrimidin-2-yl)cyclopropane-1-carboxamide], the EC50 is > 6000 nM.
Still for that read-out and setting: with `Cc1ccnc([C@H]2C[C@@H]2C(=O)Nc2cc(N[C@H](C)c3cn4cc(C5CC5)cc(N=S(C)(C)=O)c4n3)nc(C)n2)n1` [Example 431, (1S,2S)-N-(6-(((R)-1-(6-cyclopropyl-8-((dimethyl(oxo)-16-sulfaneylidene)amino)imidazo[1,2-a]pyridin-2-yl)ethyl)amino)-2-methylpyrimidin-4-yl)-2-(4-methylpyrimidin-2-yl)cyclopropane-1-carboxamide] the figure was < 1 nM; with `Cc1ccnc([C@H]2C[C@@H]2C(=O)Nc2cc(NCc3cn4cc(C5CC5)cc(N5CC(=O)N(C)C5=O)c4n3)c(F)cc2F)n1` [Example 659, (1S,2S)—N-(5-(((6-cyclopropyl-8-(3-methyl-2,4-dioxoimidazolidin-1-yl)imidazo[1,2-a]pyridin-2-yl)methyl)amino)-2,4-difluorophenyl)-2-(4-methylpyrimidin-2-yl)cyclopropane-1-carboxamide], 1 to 10 nM.
The same measure, in the same setting: then `CC1CCC(=O)N1c1cc(C2CC2)cn2cc(CNc3ccnc(NC(=O)[C@H]4C[C@@H]4c4cccc(Cl)c4)c3)nc12` (mixture of isomers) [Example 89, (1S,2S)-2-(3-chlorophenyl)-N-(4-(((6-cyclopropyl-8-(2-methyl-5-oxopyrrolidin-1-yl)imidazo[1,2-a]pyridin-2-yl)methyl)amino)pyridin-2-yl)cyclopropane-1-carboxamide], with < 1 nM; and `N#Cc1ccc(Cl)cc1[C@H]1C[C@@H]1C(=O)Nc1cc(NCc2cn3cc(C4CC4)cc(N4CCCC4=O)c3n2)ncn1` (racemic) [Example 334], with < 1 nM.

The assay is the same for the next values; noted with them: comparative compounds, 500 pM activated kallikrein format; read-out: Primary Dose Response Assay: Average EC50.
For the molecule `O=c1ccc(NCc2cn3cc(C4CC4)ccc3n2)cn1NC[C@H]1C[C@@H]1c1cccc(Cl)c1`, the concentration for a half-maximal effect (EC50) fell in the range of 1000 to 6000 nM.

Source of the values: US20240228488A1 (TAKEDA PHARMACEUTICAL COMPANY LIMITED, priority 2021, published 2024).
